# Reference: PubChem BioAssay AID1918937 (Molecular Pharmacology Branch, DTP, NCI, 2023)
# Where “and” joins values, the source holds several entries; their conditions need not be identical. Equal entries are not always repeated.
# Tested on: 521955-158-R2-J5-PDC complex spheroid viability
# Experiment: Anticancer human tumor 521955-158-R2-J5-PDC patient-derived pancreatic carcinoma cell line growth inhibition
# Conditions: for viability, T/C: stronger effect = lower value
# Summary of the method: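 Complex spheroids of tumor cells with HUVEC and human MSCs, exposed to iadademstat combined with other agents. Each agent tested in half-log steps from near clinical Cmax (else 10 microM top), DMSO ≤0.25%.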
# [1] = curve of first compound, second compound 0.1 µM
# [2] = curve of first compound, second compound 0.316 µM
# [3] = curve of first compound, second compound 1 µM
# [4] = curve of first compound, second compound 3.16 µM
# [5] = curve of first compound, second compound 10 µM
# [6] = second compound 0.1 µM, first compound 0.0316 µM
# [7] = second compound 0.1 µM, first compound 0.1 µM
# [8] = second compound 0.1 µM, first compound 0.316 µM
# [9] = second compound 0.1 µM, first compound 1 µM
# [10] = second compound 0.316 µM, first compound 0.0316 µM
# [11] = second compound 0.316 µM, first compound 0.1 µM
# [12] = second compound 0.316 µM, first compound 0.316 µM
# [13] = second compound 0.316 µM, first compound 1 µM
# [14] = second compound 1 µM, first compound 0.0316 µM
# [15] = second compound 1 µM, first compound 0.1 µM
# [16] = second compound 1 µM, first compound 0.316 µM
# [17] = second compound 1 µM, first compound 1 µM
# [18] = second compound 3.16 µM, first compound 0.0316 µM
# [19] = second compound 3.16 µM, first compound 0.1 µM
# [20] = second compound 3.16 µM, first compound 0.316 µM
# [21] = second compound 3.16 µM, first compound 1 µM
# [22] = second compound 10 µM, first compound 0.0316 µM
# [23] = second compound 10 µM, first compound 0.1 µM
# [24] = second compound 10 µM, first compound 0.316 µM
# [25] = second compound 10 µM, first compound 1 µM
# [26] = second compound 0.1 µM, first compound 0.00316 µM
# [27] = second compound 0.1 µM, first compound 0.01 µM
# [28] = second compound 0.316 µM, first compound 0.00316 µM
# [29] = second compound 0.316 µM, first compound 0.01 µM
# [30] = second compound 1 µM, first compound 0.00316 µM
# [31] = second compound 1 µM, first compound 0.01 µM
# [32] = second compound 3.16 µM, first compound 0.00316 µM
# [33] = second compound 3.16 µM, first compound 0.01 µM
# [34] = second compound 10 µM, first compound 0.00316 µM
# [35] = second compound 10 µM, first compound 0.01 µM
# 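Note: spheroids exposed to agents for seven days.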
# 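Throughout, for viability, T/C: percent of DMSO vehicle control luminescence viability.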
smiles,measurement,setting,value
CC(C)c1c(-c2ccccc2)nc2c(C#N)c[nH]n2c1=O + NC1CCC(NC2CC2c2ccccc2)CC1,IC50,[1],> 10000 nM
same,IC50,[2],> 10000 nM
same,IC50,[3],> 10000 nM
same,IC50,[4],> 10000 nM
same,IC50,[5],> 10000 nM
same,"viability, T/C",[6],87.4%
same,"viability, T/C",[7],89.5%
same,"viability, T/C",[8],88.8%
same,"viability, T/C",[9],84.7%
same,"viability, T/C","second compound 0.1 µM, first compound 3.16 µM",79%
same,"viability, T/C","second compound 0.1 µM, first compound 10 µM",68.2%
same,"viability, T/C",[10],84.9%
same,"viability, T/C",[11],85.5%
same,"viability, T/C",[12],89.2%
same,"viability, T/C",[13],78.3%
same,"viability, T/C","second compound 0.316 µM, first compound 3.16 µM",70.9%
same,"viability, T/C","second compound 0.316 µM, first compound 10 µM",65%
same,"viability, T/C",[14],86.3%
same,"viability, T/C",[15],83.6%
same,"viability, T/C",[16],89.4%
same,"viability, T/C",[17],81.7%
same,"viability, T/C","second compound 1 µM, first compound 3.16 µM",76.3%
same,"viability, T/C","second compound 1 µM, first compound 10 µM",62.9%
same,"viability, T/C",[18],90%
same,"viability, T/C",[19],86.7%
same,"viability, T/C",[20],89.1%
same,"viability, T/C",[21],85.1%
same,"viability, T/C","second compound 3.16 µM, first compound 3.16 µM",74.2%
same,"viability, T/C","second compound 3.16 µM, first compound 10 µM",59.6%
same,"viability, T/C",[22],87.8%
same,"viability, T/C",[23],84.3%
same,"viability, T/C",[24],80.7%
same,"viability, T/C",[25],79.2%
same,"viability, T/C","second compound 10 µM, first compound 3.16 µM",66.2%
same,"viability, T/C","second compound 10 µM, first compound 10 µM",54.5%
COc1cc(C2c3cc4c(cc3C(OC3OC5COC(C)OC5C(O)C3O)C3COC(=O)C23)OCO4)cc(OC)c1O (configuration not stated),"viability, T/C",compound 0.00949 µM,98.3% and 103%
same,"viability, T/C",compound 0.03 µM,88.7% and 100%
same,"viability, T/C",compound 0.0949 µM,36.7% and 63.7%
same,"viability, T/C",compound 0.3 µM,16.6% and 28.2%
same,"viability, T/C",compound 0.949 µM,9.58% and 15.6%
same,"viability, T/C",compound 3 µM,8.64% and 9.05%
same,IC50,curve of compound,71.5 nM and 151 nM
CC1COCCN1c1cc(C2(S(C)(=N)=O)CC2)nc(-c2ccnc3[nH]ccc23)n1 (configuration not stated),"viability, T/C",compound 0.0316 µM,108% and 112%
same,"viability, T/C",compound 0.1 µM,102% and 100%
same,"viability, T/C",compound 0.316 µM,94.3% and 111%
same,"viability, T/C",compound 1 µM,13.1% and 18.6%
same,"viability, T/C",compound 3.16 µM,9.05% and 12.5%
same,"viability, T/C",compound 10 µM,13.5% and 17.8%
same,IC50,curve of compound,593 nM and 655 nM
CCN(c1cc(-c2ccc(CN3CCOCC3)cc2)cc(C(=O)NCc2c(C)cc(C)[nH]c2=O)c1C)C1CCOCC1 + NC1CCC(NC2CC2c2ccccc2)CC1,IC50,[1],> 3000 nM
same,IC50,[2],2560 nM
same,IC50,[3],1880 nM
same,IC50,[4],1730 nM
same,IC50,[5],1490 nM
same,"viability, T/C","second compound 0.1 µM, first compound 0.00949 µM",105%
same,"viability, T/C","second compound 0.1 µM, first compound 0.03 µM",105%
same,"viability, T/C","second compound 0.1 µM, first compound 0.0949 µM",94.4%
same,"viability, T/C","second compound 0.1 µM, first compound 0.3 µM",83.3%
same,"viability, T/C","second compound 0.1 µM, first compound 0.949 µM",64.6%
same,"viability, T/C","second compound 0.1 µM, first compound 3 µM",51%
same,"viability, T/C","second compound 0.316 µM, first compound 0.00949 µM",103%
same,"viability, T/C","second compound 0.316 µM, first compound 0.03 µM",99.1%
same,"viability, T/C","second compound 0.316 µM, first compound 0.0949 µM",95.8%
same,"viability, T/C","second compound 0.316 µM, first compound 0.3 µM",78.2%
same,"viability, T/C","second compound 0.316 µM, first compound 0.949 µM",71%
same,"viability, T/C","second compound 0.316 µM, first compound 3 µM",46.3%
same,"viability, T/C","second compound 1 µM, first compound 0.00949 µM",103%
same,"viability, T/C","second compound 1 µM, first compound 0.03 µM",99.8%
same,"viability, T/C","second compound 1 µM, first compound 0.0949 µM",93.7%
same,"viability, T/C","second compound 1 µM, first compound 0.3 µM",79%
same,"viability, T/C","second compound 1 µM, first compound 0.949 µM",66%
same,"viability, T/C","second compound 1 µM, first compound 3 µM",39.5%
same,"viability, T/C","second compound 3.16 µM, first compound 0.00949 µM",96.8%
same,"viability, T/C","second compound 3.16 µM, first compound 0.03 µM",103%
same,"viability, T/C","second compound 3.16 µM, first compound 0.0949 µM",96.3%
same,"viability, T/C","second compound 3.16 µM, first compound 0.3 µM",82.8%
same,"viability, T/C","second compound 3.16 µM, first compound 0.949 µM",66.6%
same,"viability, T/C","second compound 3.16 µM, first compound 3 µM",35.7%
same,"viability, T/C","second compound 10 µM, first compound 0.00949 µM",103%
same,"viability, T/C","second compound 10 µM, first compound 0.03 µM",101%
same,"viability, T/C","second compound 10 µM, first compound 0.0949 µM",94.6%
same,"viability, T/C","second compound 10 µM, first compound 0.3 µM",83.8%
same,"viability, T/C","second compound 10 µM, first compound 0.949 µM",59.6%
same,"viability, T/C","second compound 10 µM, first compound 3 µM",34.8%
COc1cc(Nc2ncc3c(n2)-c2ccc(Cl)cc2C(c2c(F)cccc2OC)=NC3)ccc1C(=O)O + NC1CCC(NC2CC2c2ccccc2)CC1,IC50,[1],5.87 nM
same,IC50,[2],34 nM
same,IC50,[3],74.5 nM
same,IC50,[4],15.2 nM
same,IC50,[5],42.1 nM
same,"viability, T/C",[26],49.1%
same,"viability, T/C",[27],54.5%
same,"viability, T/C",[6],45.8%
same,"viability, T/C",[7],41.7%
same,"viability, T/C",[8],44.8%
same,"viability, T/C",[9],46.7%
same,"viability, T/C",[28],54.4%
same,"viability, T/C",[29],56.7%
same,"viability, T/C",[10],50.3%
same,"viability, T/C",[11],45%
same,"viability, T/C",[12],45.2%
same,"viability, T/C",[13],46.2%
same,"viability, T/C",[30],45.7%
same,"viability, T/C",[31],54.1%
same,"viability, T/C",[14],51.5%
same,"viability, T/C",[15],49.8%
same,"viability, T/C",[16],41.8%
same,"viability, T/C",[17],38%
same,"viability, T/C",[32],55.2%
same,"viability, T/C",[33],50.2%
same,"viability, T/C",[18],50.1%
same,"viability, T/C",[19],44.9%
same,"viability, T/C",[20],39.1%
same,"viability, T/C",[21],41.8%
same,"viability, T/C",[34],48.8%
same,"viability, T/C",[35],53.9%
same,"viability, T/C",[22],50.5%
same,"viability, T/C",[23],46.9%
same,"viability, T/C",[24],36.2%
same,"viability, T/C",[25],36.7%
CCc1c2c(nc3ccc(O)cc13)-c1cc3c(c(=O)n1C2)COC(=O)[C@]3(O)CC,"viability, T/C",compound 0.000949 µM,4.87% and 6%
same,"viability, T/C",compound 0.003 µM,3.58% and 4.94%
same,"viability, T/C",compound 0.00949 µM,1.12% and 1.08%
same,"viability, T/C",compound 0.03 µM,0.53% and 1.39%
same,"viability, T/C",compound 0.0949 µM,0.45% and 1.25%
same,"viability, T/C",compound 0.3 µM,0.6% and 1.68%
same,IC50,curve of compound,< 0.949 nM
Cn1ncnc1C1c2n[nH]c(=O)c3cc(F)cc(c23)NC1c1ccc(F)cc1 (configuration not stated) + NC1CCC(NC2CC2c2ccccc2)CC1,IC50,[1],> 100 nM
same,IC50,[2],> 100 nM
same,IC50,[3],> 100 nM
same,IC50,[4],> 100 nM
same,IC50,[5],> 100 nM
same,"viability, T/C","second compound 0.1 µM, first compound 0.000316 µM",109%
same,"viability, T/C","second compound 0.1 µM, first compound 0.001 µM",99.9%
same,"viability, T/C",[26],98%
same,"viability, T/C",[27],94.1%
same,"viability, T/C",[6],83%
same,"viability, T/C",[7],87.3%
same,"viability, T/C","second compound 0.316 µM, first compound 0.000316 µM",103%
same,"viability, T/C","second compound 0.316 µM, first compound 0.001 µM",92.4%
same,"viability, T/C",[28],89.8%
same,"viability, T/C",[29],92.8%
same,"viability, T/C",[10],85.1%
same,"viability, T/C",[11],80.6%
same,"viability, T/C","second compound 1 µM, first compound 0.000316 µM",90.5%
same,"viability, T/C","second compound 1 µM, first compound 0.001 µM",95.5%
same,"viability, T/C",[30],90.1%
same,"viability, T/C",[31],87.2%
same,"viability, T/C",[14],81.8%
same,"viability, T/C",[15],73.6%
same,"viability, T/C","second compound 3.16 µM, first compound 0.000316 µM",100%
same,"viability, T/C","second compound 3.16 µM, first compound 0.001 µM",96.5%
same,"viability, T/C",[32],95%
same,"viability, T/C",[33],85.9%
same,"viability, T/C",[18],85.2%
same,"viability, T/C",[19],76.3%
same,"viability, T/C","second compound 10 µM, first compound 0.000316 µM",93.7%
same,"viability, T/C","second compound 10 µM, first compound 0.001 µM",97.2%
same,"viability, T/C",[34],92.8%
same,"viability, T/C",[35],84.6%
same,"viability, T/C",[22],82%
same,"viability, T/C",[23],74.2%
O=C(C=Cc1cccc(S(=O)(=O)Nc2ccccc2)c1)NO,"viability, T/C",compound 0.00949 µM,114%
same,"viability, T/C",compound 0.03 µM,108% and 119%
same,"viability, T/C",compound 0.0949 µM,91.1% and 104%
same,"viability, T/C",compound 0.3 µM,48.3% and 70.4%
same,"viability, T/C",compound 0.949 µM,10.4% and 38.4%
same,IC50,curve of compound,> 3000 nM and 619 nM
